The target of data set [1] is T1, BAF3-EML4-ALK stable cell line (Homo sapiens, UniProt Q9UM73).
T1 construct: fused on or other part: Q9HC35 (Echinoderm microtubule-associated protein-like 4)
The experiment in a line: BAF3-EML4-ALK cell assay (MTT cell proliferation). The format is cell-based. To be noted: 72 hours, read-out: BAF3-EML4-ALK Cell (IC50 grading). How it is done: BAF3-EML4-ALK Cell Assay:
A method of establishing BAF3-EML4-ALK stable cell line: Transfer 5×10^6 BAF3 cells to a new tube, pellet the cells, and remove PBS by aspiration.; Resuspend the cells in 1 ml electroporation buffer, this provides 5×10^6 of cells; Transfer 200 μl of cell suspension to EP tube, add 5 ug DNA, flip and place it on ice for 10 min; Pipet the 200 μl cell suspension into 2 mm electroporation cuvette; Place the cuvette into shockpod, close the lid, and press the PULSE button; Set parameters: Expentional decay pulse: VOL=200 V; CAP=900 uF, RES=1000Ω; Transfer all cells from electroporation cuvette to 6 well plate, adding 2 ml DMEMF12 containing 5 ng/ml IL3, 24 h later, replace the medium with DMEM F12 containing 2 μg/ml blasticidin S and 5 ng/ml IL3, maintain for 3 days; change the medium with DMEM F12 containing 2 ug/ml blasticidin S and 2.5 ng/ml IL3, maintain 3 days; change the medium with DMEM F12 containing 2 ug/Ml blasticidin S, maintain to culture.
MTT Cell proliferation assay: 5×10^3 per well cell with 100 μl medium was seeded in 96-well plate; 24 hours later, 100 μl fresh medium with various concentration of compounds; After the cells were treated by compounds for 72 hours, add 20 μl MTT (5 mg/ml) into each wells; The plate is incubated at 37° C. for 4 hours; Centrifuge the plate at 800 g for 10 mins, Aspirated the medium, add 150 μl DMSO into each well. Shake plates gently for 10 mins, Measure the absorbance at 570 nm on plate reader; IR=(WC−WT)/WC.

Data set [2] in a line: PK (pharmacokinetic) study in rat, cassette dosing. The data set is classed as in vivo. To be noted: male, Wistar, plasma. How it is done: A representative protocol for the PK (pharmacokinetic) is as followed: Animals used were Wistar rat, male and weight about 300-359 grams. Compound 21 and 22 were given either IV or oral to the same animals by cassette dosing. The dose for each compound is 1 mg/kg (volume 5 ml/kg) IV and 2 mg/kg (volume 10 ml/kg) oral. The formulation for IV was in PBS, the pH is adjusted by dilute HCl until compounds were totally dissolved. 0.5% Na-CMC suspension was used for the oral formulation. Sample collection: for IV route, plasma sample were collected at the time point 0.083, 0.25, 0.5, 1, 1.5, 2, 4, 6, 8, 12, 24 h. For oral route, plasma sample were collected at the time point 0.167, 0.33, 0.5, 1, 2, 4, 6, 8, 12, 24 h. Analysis: LC-MS/MS is used to calculate PK parameters: t1/2, tmax, Cmax, Vss and AUC etc.

For data set [3], the system named is EML4-ALK-BAF3 cell line xenograft. The format is in vivo. To be noted: Table C, 40 mg/kg oral gavage once daily. From the text:
A representative protocol for the in vivo experiment is as followed to establish the subcutaneous EML4-ALK-BAF3 cell line xenograft model in nude mice and to evaluate the in vivo therapeutic efficacy of the compounds: Animals: Male Balb/c nude mice (6˜8 weeks old) were obtained from SLAC Laboratory Animal, Shanghai, China. Animals were maintained under SPF conditions in sterile filter top cages and housed on HEPA-filtered ventilated racks. Animals received sterile rodent chow and water ad libitum. Cell line: BAF3-EML4-ALK stable cell line, the BAF3 cell which could expressed fusion oncogene EML4-ALK. S.c. Xenograft Models in Athymic Mice: Cells for implantation into athymic mice were harvested and pelleted by centrifugation at 1200 r/min for 5 min. Cells were washed once and resuspended in sterile PBS buffer with 5×10^6 in 200 μl. Then cells were implanted s.c. into the right scapular region of each mouse and allowed to grow to 200˜300 mm^3 before the administration of compound. Preparation of the Dose Formulation: each compound was suspensioned in 0.5% CMC-Na. Randomization: When tumor volumes approach 200˜300 mm^3, the mice will be randomized into 5 groups according to the tumor volume. The day will be denoted as D1 and the treatments will be started at this day. Administered: Dose will be administered with oral gavage needle once daily for number of days. Treatment of compounds administered in 0.5% CMC-Na by p.o. gavage was initiated when tumors were 200˜300 mm^3 in volume. Observations: After inoculation, the animals will be checked daily for morbidity and mortality. At the time of routine monitoring, the animals will be checked for any effects of tumor growth and treatments on normal behavior such as mobility, body weight gain/loss (body weights will be measured twice weekly or every other day), eye/hair matting and any other abnormal effect. Death and observed clinical signs will be recorded on the basis of the numbers of animals within each subset. Tumor Size Measurements: Tumor volume was determined by measurement with electronic vernier calipers every 3 days and tumor volume was calculated as the product of its length×width^2×0.5. Effect studies: Tumor volume was expressed on indicated days as the mean tumor volume ±SD. […] Significant differences between the treated versus the control groups (p<0.05) were determined using t test. At study endpoint, after blood collection, mice were practiced euthanasia by cervical dislocation, the tumor tissue was collected first, then abdominal cavity was cut open, liver and spleen were excised, then weight after the gallblader was removed respectively. Organ weight and Organ/body weight ratios between the treated versus the control groups were compared. Ratios was calculated as follows: Ratios=Organ weight/(body weight-tumor weight). Both organ weight and Organ/body weight ratios were also expressed as mean±SD, and significant differences between the treated versus the control groups (p<0.05) were determined using t test.

Like-named read-outs stand apart in the source and are kept apart here.

A word on the AUC(0-inf): it is the area under the concentration-time curve extrapolated to infinity. In general, AUC(0-t) refers to exposure summed from dosing to a finite time, without extrapolation to infinity. Low readings indicate low exposure, high ones high exposure. One may read the Cmax as the maximum level reached in the sampled fluid or tissue. In general, MRT refers to a mean duration of stay, worked out from the concentration-time curve. For orientation: Tmax means the time at which the peak concentration occurs. As a reminder, the clearance is the volume of plasma or blood freed of the substance per unit of time. High values mean efficient removal, low ones inefficient removal. The half-life is the time needed for the level to fall by half in the phase considered. A lower half-life goes with rapid decline. What is called bioavailability is the share of a dose that reaches the circulation, judged against a reference dose that is usually intravenous.

T1 sequence (Q9UM73 whole entry, change not shown, the tested form may be a part): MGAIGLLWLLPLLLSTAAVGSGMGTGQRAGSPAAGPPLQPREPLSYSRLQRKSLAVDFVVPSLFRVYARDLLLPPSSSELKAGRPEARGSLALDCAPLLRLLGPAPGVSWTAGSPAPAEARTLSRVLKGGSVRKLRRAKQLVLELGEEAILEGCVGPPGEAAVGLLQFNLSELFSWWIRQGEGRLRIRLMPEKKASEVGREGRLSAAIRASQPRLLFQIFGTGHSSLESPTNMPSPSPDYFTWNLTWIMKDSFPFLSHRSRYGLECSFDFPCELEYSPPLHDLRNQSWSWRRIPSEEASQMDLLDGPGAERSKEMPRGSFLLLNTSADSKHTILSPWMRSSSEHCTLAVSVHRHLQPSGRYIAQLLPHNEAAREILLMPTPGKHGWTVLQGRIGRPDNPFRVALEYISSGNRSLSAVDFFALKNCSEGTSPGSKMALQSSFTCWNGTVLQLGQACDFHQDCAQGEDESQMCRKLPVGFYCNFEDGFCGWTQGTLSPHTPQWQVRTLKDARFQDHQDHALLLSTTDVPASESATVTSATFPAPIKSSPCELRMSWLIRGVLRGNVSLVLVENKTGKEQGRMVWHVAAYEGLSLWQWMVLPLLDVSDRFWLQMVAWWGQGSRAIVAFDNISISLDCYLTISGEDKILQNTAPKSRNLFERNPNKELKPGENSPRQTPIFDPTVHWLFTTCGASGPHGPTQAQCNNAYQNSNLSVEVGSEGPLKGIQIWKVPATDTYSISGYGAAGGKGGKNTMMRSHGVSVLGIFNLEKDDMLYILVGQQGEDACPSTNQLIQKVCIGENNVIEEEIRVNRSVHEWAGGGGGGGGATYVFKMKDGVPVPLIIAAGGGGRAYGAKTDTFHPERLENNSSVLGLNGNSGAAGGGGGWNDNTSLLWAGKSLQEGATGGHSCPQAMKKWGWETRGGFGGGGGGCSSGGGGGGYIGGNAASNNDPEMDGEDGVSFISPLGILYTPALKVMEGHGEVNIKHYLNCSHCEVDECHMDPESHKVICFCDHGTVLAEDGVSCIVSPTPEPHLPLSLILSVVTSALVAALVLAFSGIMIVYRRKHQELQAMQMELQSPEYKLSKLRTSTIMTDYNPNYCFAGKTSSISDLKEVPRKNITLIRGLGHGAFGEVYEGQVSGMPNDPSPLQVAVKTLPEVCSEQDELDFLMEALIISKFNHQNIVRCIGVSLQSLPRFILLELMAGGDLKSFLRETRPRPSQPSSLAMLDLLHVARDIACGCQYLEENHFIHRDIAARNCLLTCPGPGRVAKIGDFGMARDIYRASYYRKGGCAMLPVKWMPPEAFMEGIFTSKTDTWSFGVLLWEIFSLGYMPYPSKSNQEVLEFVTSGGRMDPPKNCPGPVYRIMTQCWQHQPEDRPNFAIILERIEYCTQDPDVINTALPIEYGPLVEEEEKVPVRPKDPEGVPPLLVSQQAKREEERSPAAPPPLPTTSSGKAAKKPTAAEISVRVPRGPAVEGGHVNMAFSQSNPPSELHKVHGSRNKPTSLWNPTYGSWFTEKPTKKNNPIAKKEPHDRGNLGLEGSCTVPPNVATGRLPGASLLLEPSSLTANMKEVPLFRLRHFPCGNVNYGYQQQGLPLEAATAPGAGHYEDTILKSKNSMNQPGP

For `[2H]C([2H])([2H])C([2H])([2H])N1CCC(n2cc(-c3cnc(N)c(O[C@H](C)c4c(Cl)ccc(F)c4Cl)c3)cn2)CC1` [Compound 22, (R)-3-(1-(2,6-dichloro-3-fluorophenyl)ethoxy)-5-(1-(1-d5-ethylpiperidin-4-yl)-1H-pyrazol-4-yl)pyridin-2-amine], in data set [1], the GI50 is at most 100 nM. In data set [2] (IV cassette 1 mg/kg), this molecule gave an AUC(0-inf) of 337 ng·h/mL, an AUC(0-t) of 336 ng·h/mL, a Cmax of 259 ng/mL and an MRT of 3.11 h. Also, in data set [2] (IV cassette 1 mg/kg), the Tmax was 0.083 h, the clearance is 49.5 mL/min/kg and the half-life is 3.04 h. In data set [2] (oral cassette 2 mg/kg), this molecule displayed an AUC(0-inf) of 146 ng·h/mL, an AUC(0-t) of 140 ng·h/mL, a Cmax of 21 ng/mL and an MRT of 5.28 h. Further, in data set [2] (oral cassette 2 mg/kg), the Tmax is 4 h and the half-life was 3.1 h. In data set [2] (oral cassette 2 mg/kg vs IV 1 mg/kg, read-out: F (bioavailability)), the bioavailability was 20.8%. The “Tumor growth inhibition (TGI, %)” value in data set [3] (day 2) came out at 22.58%. Besides, the “Tumor growth inhibition (TGI, %)” value in data set [3] (day 5) was 53.72%. Besides, in data set [3] (day 8), the “Tumor growth inhibition (TGI, %)” value is recorded as 66.61%. In data set [3] (day 11), the “Tumor growth inhibition (TGI, %)” value turned out to be 82.97%. The “Tumor growth inhibition (TGI, %)” value in data set [3] (day 14) was found to be 87.64%.

(Values after patent publication US20140350050A1, “PYRIDINE COMPOUNDS AS INHIBITORS OF KINASE” (TELIGENE LTD., priority 2011, published 2014).)
